# In US7384916B2, “Methods and compositions for preventing and treating aging or photodamaged skin” (ProCyte Corporation, priority 2005, dated 2008):
# Key:
# Type in all cases: cell-based
# [1] = test system: Normal human dermal fibroblasts; test: Stimulation of collagen type I formation in fibroblasts (sandwich ELISA of culture media); conditions: for ELISA Collagen Type I / ELISA Collagen Type I (% Increase): 3 days; for ELISA Collagen Type I: low glucose media with 2% serum, control 48; for ELISA Collagen Type I (% Increase): vs 0 ug/ml control
# Description: The effect of peptide manganese complexes on collagen formation was determined by determining the amount of collagen type I produced by human fibroblasts in cell culture. Normal human dermal fibroblasts were seeded into a 96-well cell culture plate and grown to confluence in high glucose media supplemented with 10% fetal calf serum for 3 days. The fibroblasts were then placed in low glucose media with 2% serum and various amounts of a representative peptide manganese complex. After 3 days, the culture media was collected and analyzed for collagen type I content by a sandwich ELISA assay using purified antibody to collagen type I.
# [2] = test system: Normal human dermal fibroblasts; test: Viability of dermal fibroblasts (neutral red stain); conditions: for Neutral Red Stain - Cell Viability: 3 days, control 212
# Description: (§1) The effect of peptide manganese complexes on the growth and viability of fibroblasts was determined. Normal human dermal fibroblasts were seeded into a 96-well cell culture plate and grown to confluence in high glucose media supplemented with 10% fetal calf serum for 3 days. The fibroblasts were then placed in low glucose media with 2% serum and various amounts of a representative peptide manganese complex. After 3 days, the cells were incubated with neutral red to assess their viability and stained with sulforhodamin B and counted to determine the number of cells.
# [3] = test system: Normal human dermal fibroblasts; test: Proliferation of dermal fibroblasts (sulforhodamin B stain, cell number); conditions: for Sulforhodamin B Stain - Cell Number / Sulforhodamin B Stain - Cell Number (% Increase): 3 days; for Sulforhodamin B Stain - Cell Number: control 313; for Sulforhodamin B Stain - Cell Number (% Increase): vs 0 ug/ml control
# Description: as §1
substance,measurement,setting,value
glycyl-L-histidyl-L-lysine:manganese(II),ELISA Collagen Type I,[1]; 10 ug/ml complex,61.5
same,ELISA Collagen Type I (% Increase),[1]; 10 ug/ml complex,+28%
same,ELISA Collagen Type I,[1]; 100 ug/ml complex,102.5
same,ELISA Collagen Type I (% Increase),[1]; 100 ug/ml complex,+129%
same,Effect on formation of collagen type I (in words),[1]; summary of Table 4,stimulated the formation of collagen type I
same,Neutral Red Stain - Cell Viability,[2]; 10 ug/ml complex,231
same,Neutral Red Stain - Cell Viability,[2]; 100 ug/ml complex,253
same,Effect on viability of normal human dermal fibroblasts (in words),[2]; summary of Table 6,increased their viability
same,Sulforhodamin B Stain - Cell Number,[3]; 10 ug/ml complex,383
same,Sulforhodamin B Stain - Cell Number (% Increase),[3]; 10 ug/ml complex,+22%
same,Sulforhodamin B Stain - Cell Number,[3]; 100 ug/ml complex,535
same,Sulforhodamin B Stain - Cell Number (% Increase),[3]; 100 ug/ml complex,+71%
same,Effect on proliferation of normal human dermal fibroblasts (in words),[3]; summary of Table 5,stimulated the proliferation
